Assay results as given in the supplement of paper PMC10307832.

Assays:
Test in all cases: relative viability (nuclei count vs DMSO), 5 days (fraction); higher = more cells survive
Tosedostat + Dasatinib = compound: CC(C)C[C@@H](C(=O)N[C@H](C(=O)OC1CCCC1)c1ccccc1)[C@H](O)C(=O)NO [Tosedostat] + Cc1nc(Nc2ncc(C(=O)Nc3c(C)cccc3Cl)s2)cc(N2CCN(CCO)CC2)n1 [Dasatinib] (partner 0.075 µM)
Method in brief: (§1)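 Lung cancer cell lines in 1536-well plates were dosed by pin tool the day after seeding, either with one drug alone or with a fixed anchor-drug dose plus five library-drug doses (not always all listed) in √10 steps. After 5 days, cells were fixed and their nuclei stained in one step (final 0.05% Triton X-100, 1% formaldehyde, 1 ug/ml Hoechst), then counted on 4× images. Relative viability is the nuclei count in treated wells divided by that in vehicle wells. Values are medians of duplicate plates.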

[1] = compound: CC1=NN=C(O1)C2=NN=C(C=C2)N3CCC(CC3)OC4=C(C=CC(=C4)F)Cl + CS(=O)(=O)CCNCc1ccc(-c2ccc3ncnc(Nc4ccc(OCc5cccc(F)c5)c(Cl)c4)c3c2)o1 [Lapatinib] (partner 2 µM)
Method in brief: as §1

Tosedostat + Pemetrexed = compound: CC(C)C[C@@H](C(=O)N[C@H](C(=O)OC1CCCC1)c1ccccc1)[C@H](O)C(=O)NO [Tosedostat] + Nc1nc2[nH]cc(CCc3ccc(C(=O)N[C@@H](CCC(=O)O)C(=O)O)cc3)c2c(=O)[nH]1 [Pemetrexed] (partner 0.2 µM)
Method in brief: as §1

Tosedostat + Linsitinib = compound: CC(C)C[C@@H](C(=O)N[C@H](C(=O)OC1CCCC1)c1ccccc1)[C@H](O)C(=O)NO [Tosedostat] + C[C@]1(O)C[C@@H](c2nc(-c3ccc4ccc(-c5ccccc5)nc4c3)c3c(N)nccn32)C1 [Linsitinib] (partner 1 µM)
Method in brief: as §1

| Cell Line | relative viability (Tosedostat + Dasatinib; first compound 0.02 µM) | relative viability (Tosedostat + Dasatinib; first compound 0.06325 µM) | relative viability (Tosedostat + Dasatinib; first compound 0.2 µM) | relative viability (Tosedostat + Dasatinib; first compound 0.6325 µM) | relative viability (Tosedostat + Dasatinib; first compound 2 µM) | relative viability ([1]; first compound 0.253 µM) | relative viability ([1]; first compound 0.8 µM) | relative viability ([1]; first compound 2.53 µM) | relative viability ([1]; first compound 8 µM) | relative viability (Tosedostat + Pemetrexed; first compound 0.02 µM) | relative viability (Tosedostat + Pemetrexed; first compound 0.06325 µM) | relative viability (Tosedostat + Pemetrexed; first compound 0.2 µM) | relative viability (Tosedostat + Pemetrexed; first compound 0.6325 µM) | relative viability (Tosedostat + Pemetrexed; first compound 2 µM) | relative viability (Tosedostat + Linsitinib; first compound 0.02 µM) | relative viability (Tosedostat + Linsitinib; first compound 0.06325 µM) | relative viability (Tosedostat + Linsitinib; first compound 0.2 µM) | relative viability (Tosedostat + Linsitinib; first compound 0.6325 µM) | relative viability (Tosedostat + Linsitinib; first compound 2 µM) |
| --- | --- | --- | --- | --- | --- | --- | --- | --- | --- | --- | --- | --- | --- | --- | --- | --- | --- | --- | --- |
| COR-L23 | 0.546 | 0.469 | 0.495 | 0.381 | 0.332 | 0.811 | 0.761 | 0.756 | 0.602 | 0.2 | 0.214 | 0.202 | 0.194 | 0.172 | 1.1 | 0.805 | 0.827 | 0.869 | 0.877 |
| HCC-78 | 0.317 | 0.439 | 0.37 | 0.374 | 0.493 | 0.401 | 0.351 | 0.404 | 0.325 | 0.923 | 1.02 | 0.838 | 0.895 | 0.922 | 0.397 | 0.608 | 0.429 | 0.458 | 0.573 |
| NCI-H1437 | 0.488 | 0.46 | 0.415 | 0.323 | 0.327 | 0.434 | 0.486 | 0.545 | 0.453 | 0.297 | 0.353 | 0.335 | 0.354 | 0.391 | 1.12 | 1.03 | 1 | 0.752 | 0.66 |
| SK-LU-1 | 0.184 | 0.191 | 0.219 | 0.197 | 0.203 | 0.703 | 0.749 | 0.772 | 0.807 | 1 | 0.9 | 1.05 | 0.962 | 0.868 | 1.1 | 1.07 | 0.9 | 0.855 | 0.906 |
| NCI-H2347 | 0.269 | 0.353 | 0.291 | 0.311 | 0.26 | 0.557 | 0.631 | 0.593 | 0.535 | 0.443 | 0.425 | 0.434 | 0.421 | 0.374 | 0.989 | 0.967 | 0.992 | 0.949 | 0.975 |
| BEN | 0.348 | 0.348 | 0.39 | 0.446 | 0.344 | 0.607 | 0.729 | 0.743 | 0.61 | 0.845 | 0.893 | 0.997 | 1.2 | 1.06 | 0.986 | 0.921 | 0.989 | 1.14 | 1.06 |
| EKVX | 0.586 | 0.565 | 0.548 | 0.588 | 0.512 | 0.175 | 0.178 | 0.187 | 0.193 | 0.462 | 0.427 | 0.547 | 0.462 | 0.477 | 0.935 | 1.01 | 1.03 | 0.932 | 1.08 |
| PC-3 [JPC-3] | 0.999 | 1.06 | 0.929 | 0.621 | 0.7 | 0.404 | 0.453 | 0.445 | 0.432 | 1.03 | 1.18 | 0.918 | 0.901 | 0.54 | 1.03 | 1 | 1 | 0.946 | 0.653 |
| NCI-H23 | 0.785 | 0.817 | 0.741 | 0.662 | 0.455 | 1.03 | – | 0.955 | 0.876 | 0.745 | 0.702 | 0.691 | 0.725 | 0.361 | 0.612 | 0.56 | 0.548 | 0.474 | 0.416 |
| NCI-H1793 | 0.431 | 0.408 | 0.388 | 0.316 | 0.37 | 0.75 | 0.688 | 0.822 | 0.581 | 0.659 | 0.832 | 0.838 | 0.849 | 0.598 | 0.678 | 0.984 | 0.711 | 0.641 | 0.873 |
| LC-2-ad | 0.865 | 0.51 | 0.675 | 0.602 | 0.337 | 0.291 | 0.271 | 0.335 | 0.262 | 0.299 | 0.303 | 0.289 | 0.277 | 0.251 | 0.865 | 0.743 | 0.866 | 0.823 | 0.805 |
| COR-L 105 | 0.348 | 0.37 | 0.365 | 0.323 | 0.298 | 0.349 | 0.36 | 0.332 | 0.417 | 1.16 | 0.915 | 1.01 | 0.857 | 0.894 | 0.841 | 0.876 | 0.778 | 0.662 | 0.653 |
| NCI-H1563 | 0.507 | 0.528 | 0.459 | 0.512 | 0.442 | 0.804 | 0.992 | 0.88 | 0.82 | 0.838 | 0.99 | 0.797 | 1.14 | 0.839 | 1.25 | 1.16 | 1.26 | 1.29 | 1.4 |
| H3255 | 0.278 | 0.35 | 0.347 | 0.429 | 0.33 | 0.24 | 0.193 | 0.266 | 0.269 | 0.56 | 0.628 | 0.625 | 0.611 | 0.638 | 0.94 | 0.949 | 0.917 | 0.984 | 0.988 |
| NCI-H2087 | 1.17 | 0.936 | 0.908 | 0.688 | 0.869 | 0.618 | 0.56 | 0.554 | 0.51 | 0.682 | 0.754 | 0.709 | 0.727 | 0.612 | 1 | 0.969 | 0.951 | 1 | 0.886 |
| NCI-H1915 | 0.321 | 0.348 | 0.306 | 0.277 | 0.215 | 0.431 | 0.334 | 0.401 | 0.322 | 0.526 | 0.538 | 0.645 | 0.726 | 0.781 | 1.16 | 1.11 | 1.11 | 1.1 | 0.961 |
